The subject of assay [1] is rabbit platelets. The experiment in a line: PAF-induced platelet secretion ([3H]serotonin). Particulars: Oryctolagus cuniculus, washed [3H]serotonin-labeled rabbit platelets, antagonist 60 sec before PAF, sampled 60 sec after PAF. It is filed as cell-based. The method, then: (§1) Washed, [^3 H]serotonin-labeled rabbit platelets were prepared as previously described in COX, C. P., J. LINDEN and S. I. SAID: VIP elevates platelet cyclic AMP (cAMP) levels and inhibits in vitro platelet activation induced by platelet- activating factor (PAF). Peptides 5:25-28, 1984, and maintained in an atmosphere of 5% CO2 at 37° C. until used in the bioassay. Aliquots of platelets (2.5×10^8 /ml) were incubated with either an antagonist of PAF or the appropriate vehicle for 60 sec prior to the addition of PAF (0.2 nM to 0.2 mM). Aggregation was continuously monitored on a strip-chart recorder and recorded as the height of the tracing at 60 sec after the addition of PAF. Secretion of [^3 H]serotonin was measured in a sample of the platelet suspension removed at 60 sec after the addition of PAF. The percent inhibition of aggregation and secretion was calculated by comparing antagonist-treated platelets with the appropriate vehicle-treated control platelets. Each combination of antagonist and PAF was repeated 12-15 times, using several different platelet preparations. IC50 values were determined by inspection of the dose-response curves.

Assay [2] has as its system rabbit platelets. Briefly: PAF-induced platelet aggregation. It is filed as cell-based. To be noted: Oryctolagus cuniculus, washed rabbit platelets, antagonist 60 sec before PAF, tracing height 60 sec after PAF. As for the experimental part:
as §1

The target of assay [3] is Human Platelet Membrane Receptors (PAF receptor) (Homo sapiens, UniProt P25105). To be noted: for inhibition at 50 µM: read-out: Percent Inhibition of 3H-PAF binding at 50 μM.
Method: INHIBITION OF ^3 H-PAF BINDING TO HUMAN PLATELET MEMBRANE RECEPTORS
Ten units of in-dated human packed platelets, each containing 45-65 ml platelet rich-plasma, were purchased from a commercial blood bank. Disposable plasticware was used throughout for receptor preparation. The units were pooled and a 1 ml aliquot was removed for determination of platelet concentration, using a Coulter Counter. The remaining platelet rich plasma was dispensed into 50 ml conical tubes and centrifuged at room temperature for 15 minutes at 3000 RPM (2300×g). Plasma was decanted and the platelets were resuspended in 35 ml of buffer (10 mM Trizma 7.0, 2 mM EDTA (dipotassium salt), and 150 mM KCl) and transferred to fresh tubes, which were centrifuged again as above. The platelets were washed 3 times, avoiding contaminating erythrocytes at the bottom of the pellets. Pellets were consolidated at each step, and by the last wash with EDTA/KCl buffer, most of the erythrocytes were in 1 tube. The pellets were resuspended in buffer containing 10 mM Trizma 7.0 with 10 mM CaCl2. Following centrifugation, the buffer was decanted and the pellets were resuspended in the CaCl2 buffer, avoiding erythrocyte contamination by recovering less than 100% of the platelet pellets. The resuspended platelets were dispensed in 8-10 ml aliquots into Corex tubes and disrupted by three cycles of freezing (dry ice/ethanol) and thawing (24° C.). The tubes were centrifuged at 40,000 × g for 20 minutes at 4° C. Supernatants were decanted and each pellet was resuspended in 5-7 ml 10 mM Trizma 7.0. All resuspended pellets were pooled and aliquots of about 1200 ml were dispensed into 1.5 ml microfuge tubes and frozen at -70° C. Protein content was determined by a fluorescamine protein assay.
Assay Methods: Receptor Characterization--Each receptor preparation was evaluated to determine the number of receptor populations, the number of PAF receptor equivalents/mg protein and the dissociation constant (KD) for PAF binding This required 2-3 experiments in which the protein concentration was held constant and the ^3 H-PAF ligand concentration was varied from approximately 0.10-2.5 nM and the data was analyzed by Scatchard methodology. Total incubation volume was 250 ml for these procedures and incubations were conducted at 24° C. for 30 minutes. For further experimentation, total incubation volumes are 500 ml. Protein and ligand concentrations were adjusted to give 0.075 nM receptor equivalents in the presence of 0.75 nM ^3 H-PAF. Each receptor preparation was then used to determine the dose - response displacement relationship of unlabeled PAF and the PAF antagonist, triazolam.
Assay Methods: Routine Assay of Compounds--The compounds were weighed precisely and solubilized in quantities of DMSO such that a 5 ml aliquot in the incubate would deliver the desired compound concentration. Compounds tested for the first time in this assay were evaluated at a concentration of 50 mM in the incubation medium. […] Triazolam was always included in each screening assay as a compound inhibition control. […] Nonspecific binding control solution was made by drying to completion about 26.2 ml unlabeled PAF under a stream of argon. PAF was resolubilized in 1000 ml DMSO. When delivered in a 5 ml aliquot, the final concentration of 1 mM PAF in the incubate exceeded by 1000-fold the concentration of ^3 H-PAF.
All buffers containing proteins were made at room temperature on the day of assay. Assay buffer was prepared by adding 125 mg human albumin to 25 ml of stock buffer (10 mM Trizma 7.4 with 20 mM CaCl2). Rinse buffer was made by adding 20 grams bovine serum albumin to 1000 ml stock buffer. About 80 ml of rinse buffer was decanted into a small pyrex dish and used to soak 65 Whatman GF/C 2.5 cm glass filters. The remaining rinse buffer was poured into a repipet and placed into an ice bath along with the filters.

pIC50: −log10 of the molar value. Bounds are passed on as bounds.

Human Platelet Membrane Receptors (PAF receptor), sequence (P25105 whole entry): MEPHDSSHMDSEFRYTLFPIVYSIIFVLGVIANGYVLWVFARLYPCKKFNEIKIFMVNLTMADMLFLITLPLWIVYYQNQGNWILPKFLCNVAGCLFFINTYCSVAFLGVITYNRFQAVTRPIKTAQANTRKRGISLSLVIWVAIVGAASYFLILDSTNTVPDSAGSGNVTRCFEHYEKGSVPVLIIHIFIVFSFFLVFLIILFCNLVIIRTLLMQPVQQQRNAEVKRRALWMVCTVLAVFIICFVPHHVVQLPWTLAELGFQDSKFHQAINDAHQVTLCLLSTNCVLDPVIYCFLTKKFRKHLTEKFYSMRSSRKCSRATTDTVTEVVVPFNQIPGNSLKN

Take `COc1ccc(Oc2ccc(C(=O)N(C(C)C)C3CCCCC3)cc2)cc1` [Example 2, N-cyclohexyl-4-(4-methoxyphenoxy)-N-(1-methylethyl)benzamide]: the figures for the pIC50 (in the assay with rabbit platelets [1]; in the assay on rabbit platelets [2] (1 min); in assay [3]) were 5.95, 5.00 to 6.00 and 4.66, respectively.

Compound `COc1cccc(OCc2ccc(C(=O)N(C(C)C)C3CCCCC3)cc2OC)c1` [Example 21, N-cyclohexyl-3-methoxy-4-[(3-methoxyphenoxy)methyl]-N-(1-methylethyl)benzamide] gave a pIC50 in assay [3] of 4.95.

For the compound `COc1cc(C(=O)N(C(C)C)C2CCCCC2)ccc1Oc1cc(OC)c(OC)c(OC)c1` [Example 19, N-cyclohexyl-3-methoxy-N-(1-methylethyl)-4-(3,4,5-trimethoxyphenoxy)benzamide], in assay [3], the pIC50 is 6.00.

Consider `COc1cc(Cc2ccc(C(=O)N(C(C)C)C3CCCCC3)cc2)cc(OC)c1OC` [Example 15, N-cyclohexyl-N-(1-methylethyl)-4-[(3,4,5-trimethoxyphenyl)methyl]benzamide], for which the pIC50 is 7.58 in the assay on rabbit platelets [1], 6.00 to 7.00 in the assay on rabbit platelets [2] (1 min) and 6.37 in assay [3].

Consider `COc1cccc(Oc2ccc(C(=O)N(C(C)C)C3CCCCC3)cc2)c1` [Example 3, N-cyclohexyl-4-(3-methoxyphenoxy)-N-(1-methylethyl)benzamide], for which the pIC50 with rabbit platelets [1] was 6.12; in the assay on rabbit platelets [2] (1 min), 5.00 to 6.00; in assay [3], 4.98.

Turning to `COc1cccc(OCc2ccc(C(=O)N(C)C3CCCCC3)cc2)c1` [Example 22, N-cyclohexyl-4-[(3-methoxyphenoxy)methyl]-N-methylbenzamide], the pIC50 in the assay with rabbit platelets [1] is < 5.00; with rabbit platelets [2] (1 min), 4.00 to 5.00; in assay [3], 4.27.

For the compound `COc1cc(OC)c(OC)cc1Cc1ccc(C(=O)N(C2CCCCC2)C2CCCC2)cc1` [Example 17, N-cyclohexyl-N-cyclopentyl-4-[(2,4,5-trimethoxyphenyl)methyl]benzamide], the pIC50 with rabbit platelets [1] is 6.20; with rabbit platelets [2] (1 min), 5.00 to 6.00; in assay [3], 5.43.

In the case of `COc1ccc(Oc2ccc(C(=O)N(C3CCCC3)C3CCCC3)cc2)cc1OC` [Example 7, N,N-dicyclopentyl-4-(3,4-dimethoxyphenoxy)benzamide], the results for the pIC50 (in the assay on rabbit platelets [1]; in the assay with rabbit platelets [2] (1 min); in assay [3]) were 6.37, 5.00 to 6.00 and 6.04, respectively.

Turning to `COc1cc(Oc2ccc(C(=O)N(C3CCCCC3)C3CCCC3)cc2C)cc(OC)c1OC` [Example 13, N-cyclohexyl-N-cyclopentyl-3-methyl-4-(3,4,5-trimethoxyphenoxy)benzamide], the pIC50 was 7.05 with rabbit platelets [1], > 6.00 in the assay on rabbit platelets [2] and 6.22 in assay [3].

With `COc1cc(C(O)c2ccc(C(=O)N(C(C)C)C3CCCCC3)cc2)cc(OC)c1OC` (stereo not drawn) [Example 14, N-cyclohexyl-4-[hydroxy(3,4,5-trimethoxyphenyl)methyl]-N-(1-methylethyl)benzamide], the values for the negative-log IC50 (pIC50) in the assay with rabbit platelets [1] and with rabbit platelets [2] (1 min) were 5.74 and 6.00 to 7.00, respectively. For the same compound, the inhibition at 50 µM in assay [3] was determined as 49.2%.

As for `Cc1nnc2n1-c1ccc(Cl)cc1C(c1ccccc1Cl)=NC2` [Triazolam, triazolam, reference compound], the “inhibition of 3H-PAF binding by triazolam control at standard concentration” value in assay [3] (standard concentration of 50 mM (so in the source), 0.75 nM 3H-PAF) is listed as “approximately 50%”.

As for `COc1ccc(C(O)c2ccc(C(=O)N(C(C)C)C3CCCCC3)cc2)cc1OC` (stereo not drawn) [Example 8, N-cyclohexyl-4-[(3,4-dimethoxyphenyl)hydroxymethyl]-N-(1-methylethyl)benzamide], the pIC50 is 5.59 in the assay on rabbit platelets [1] and 4.00 to 5.00 in the assay on rabbit platelets [2] (1 min). Besides, the inhibition at 50 µM in assay [3] came out at 44%.

`COc1ccc(Cc2ccc(C(=O)N(C3CCCC3)C3CCCC3)cc2)cc1OC` [Example 11, N,N-dicyclopentyl-4-[(3,4-dimethoxyphenyl)methyl]benzamide]: the pIC50 in the assay on rabbit platelets [1] is 6.94; in the assay on rabbit platelets [2] (1 min), 5.00 to 6.00; in assay [3] it was 5.83.

Regarding `COc1ccc(C(O)c2ccc(C(=O)N(C3CCCCC3)C3CCCC3)cc2)cc1OC` (stereo not drawn) [Example 9, N-cyclohexyl-N-cyclopentyl-4-[(3,4-dimethoxyphenyl)hydroxymethyl]benzamide], the pIC50 with rabbit platelets [1] was 5.83; in the assay with rabbit platelets [2] (1 min) it was 5.00 to 6.00. Besides, in assay [3], the inhibition at 50 µM was 61.9%.

Consider `COc1cc(OC)cc(Oc2ccc(C(=O)N(C(C)C)C3CCCCC3)cc2)c1` [Example 12, N-cyclohexyl-4-(3,5-dimethoxyphenoxy)-N-(1-methylethyl)benzamide], for which the pIC50 in the assay with rabbit platelets [1] is 6.85; with rabbit platelets [2] (1 min), 5.00 to 6.00; in assay [3] it was 5.57.

In the case of `CC(C)N(C(=O)c1ccc(Oc2ccc3c(c2)OCO3)cc1)C1CCCCC1` [Example 18, N-cyclohexyl-4-(3,4-methylenedioxyphenoxy)-N-(1-methylethyl)benzamide], the pIC50 in the assay with rabbit platelets [1] is 5.70; in the assay on rabbit platelets [2] (1 min), 5.00 to 6.00; in assay [3], 5.09.

As for `COc1cc(Oc2ccc(C(=O)N(C(C)C)C3CCCCC3)cc2)cc(OC)c1OC` [Example 1, N-cyclohexyl-N-(1-methylethyl)-4-(3,4,5-trimethoxyphenoxy)benzamide], the pIC50 in the assay with rabbit platelets [1] is 8.05; with rabbit platelets [2] (1 min), 7.00 to 8.00; in assay [3], 6.88.

For `COc1ccc(OCc2ccc(C(=O)N(C(C)C)C3CCCCC3)cc2OC)c(OC)c1` [Example 20, N-cyclohexyl-4-[(2,4-dimethoxyphenoxy)methyl]-3-methoxy-N-(1-methylethyl)benzamide], the inhibition at 50 µM in assay [3] amounted to 41%.

As to `COc1cc(OCc2ccc(C(=O)N(C)C3CCCCC3)cc2)cc(OC)c1OC` [Example 23, N-cyclohexyl-N-methyl-4-[(3,4,5-trimethoxyphenoxy)methyl]benzamide], the figures for the pIC50 (in the assay on rabbit platelets [1] (1 min); in the assay with rabbit platelets [2] (1 min); in assay [3]) were 4.00 to 5.00, 4.00 to 5.00 and < 4.30, respectively.

With `COc1ccc(Oc2ccc(C(=O)N(C3CCCCC3)C3CCCC3)cc2)cc1OC` [Example 5, N-cyclohexyl-N-cyclopentyl-4-(3,4-dimethoxyphenoxy)benzamide], the pIC50 is 5.40 in the assay on rabbit platelets [1], 5.00 to 6.00 in the assay with rabbit platelets [2] (1 min) and 5.82 in assay [3].

As to `COc1ccc(Oc2ccc(C(=O)N(C(C)C)C3CCCCC3)cc2)cc1OC` [Example 6, N-cyclohexyl-4-(3,4-dimethoxyphenoxy)-N-(1-methylethyl)benzamide], the pIC50 in the assay on rabbit platelets [1] is 7.07; in the assay on rabbit platelets [2] (1 min), 6.00 to 7.00; in assay [3] it was 5.70.

With `COc1ccc(C(O)c2ccc(C(=O)N(C3CCCC3)C3CCCC3)cc2)cc1OC` (stereo not drawn) [Example 10, N,N-dicyclopentyl-4-[(3,4-dimethoxyphenyl) hydroxymethyl]benzamide], the pIC50 in the assay on rabbit platelets [1] (1 min) was 5.00 to 6.00; in the assay on rabbit platelets [2] it was < 5.00. In assay [3], the inhibition at 50 µM is 47%.

For `COc1cc(C(=O)c2ccc(C(=O)N(C(C)C)C3CCCCC3)cc2)cc(OC)c1OC` [Example 16, N-cyclohexyl-N-(1-methylethyl)-4-(3,4,5-trimethoxybenzoyl)benzamide], the pIC50 in the assay with rabbit platelets [1] was 6.99; in the assay with rabbit platelets [2] (1 min) it was 6.00 to 7.00.

Regarding `COc1cc(Oc2ccc(C(=O)N(C3CCCCC3)C3CCCC3)cc2)cc(OC)c1OC` [Example 4, N-cyclohexyl-N-cyclopentyl-4-(3,4,5-trimethoxyphenoxy)benzamide], the pIC50 is 8.03 in the assay with rabbit platelets [1], 5.00 to 6.00 with rabbit platelets [2] (1 min) and 6.29 in assay [3].
